target: T1, PARP7 (Homo sapiens, UniProt Q7Z3E1); test: PARP7 inhibitory activity assay (histone-coated 384-well plate, chemiluminescence); format: biochemical
T1 construct: purchased BPS 80527
T1 sequence (Q7Z3E1 1-657): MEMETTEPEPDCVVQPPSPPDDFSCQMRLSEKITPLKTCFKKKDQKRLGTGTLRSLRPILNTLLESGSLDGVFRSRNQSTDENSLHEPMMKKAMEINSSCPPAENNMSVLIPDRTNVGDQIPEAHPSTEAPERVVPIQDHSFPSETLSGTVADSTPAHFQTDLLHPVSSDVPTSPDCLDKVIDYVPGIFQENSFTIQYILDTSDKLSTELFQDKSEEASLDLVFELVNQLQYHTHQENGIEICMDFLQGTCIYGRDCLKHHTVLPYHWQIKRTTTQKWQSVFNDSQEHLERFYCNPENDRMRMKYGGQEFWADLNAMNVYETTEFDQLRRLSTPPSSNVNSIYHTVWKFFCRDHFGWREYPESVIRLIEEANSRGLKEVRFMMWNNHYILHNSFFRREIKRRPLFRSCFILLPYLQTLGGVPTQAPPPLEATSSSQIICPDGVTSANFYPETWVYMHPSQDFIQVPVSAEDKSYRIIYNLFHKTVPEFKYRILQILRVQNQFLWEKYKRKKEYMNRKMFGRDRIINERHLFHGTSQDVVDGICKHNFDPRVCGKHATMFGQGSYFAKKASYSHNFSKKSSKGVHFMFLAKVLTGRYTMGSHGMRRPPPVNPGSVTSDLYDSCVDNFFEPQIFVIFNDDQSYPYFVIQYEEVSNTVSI
Excerpt: Inhibition rate (%) calculation formula: […]

Row | IC50 [nM] | SMILES
1 | 1000 to 10000 | O=C([C@H]1CC[C@H](NCc2c[nH]c(=O)c(C(F)(F)F)c2)C1)N1C2CCC1CN(c1ncc(C(F)(F)F)cn1)C2 [Embodiment 1]
2 | 10 to 100 | C[C@@H](CN1CC[C@@H](C(=O)N2C3CCC2CN(c2ncc(C(F)(F)F)cn2)C3)C1)Nc1cn[nH]c(=O)c1C(F)(F)F [Embodiment 2]
3 | 10 to 100 | C[C@@H](CN1CC[C@H](C(=O)N2C3CCC2CN(c2ncc(C(F)(F)F)cn2)C3)C1)Nc1cn[nH]c(=O)c1C(F)(F)F [Embodiment 6]
4 | 100 to 1000 | O=C(c1ccc(NCc2c[nH]c(=O)c(C(F)(F)F)c2)cc1)N1C2CCC1CN(c1ncc(C(F)(F)F)cn1)C2 [Embodiment 7]
5 | 10 to 100 | C[C@@H]1CN(c2ncc(C(F)(F)F)cn2)CCN1C(=O)[C@H]1C[C@H](NCc2c[nH]c(=O)c(C(F)(F)F)c2)C1 [Embodiment 8]
6 | 1000 to 10000 | O=C([C@H]1CCN(Cc2c[nH]c(=O)c(C(F)(F)F)c2)C1)N1C2CCC1CN(c1ncc(C(F)(F)F)cn1)C2 [Embodiment 9, 3-(trifluoromethyl)-5-(((3S)-3-(3-(5-(trifluoromethyl)pyrimidin-2-yl)-3,8-diazabicyclo[3.2.1]octane-8-carbonyl)pyrrolidin-1-yl)methyl)pyridin-2(1H)-one]
7 | 10 to 100 | O=C([C@@H]1CCN(Cc2c[nH]c(=O)c(C(F)(F)F)c2)C1)N1C2CCC1CN(c1ncc(C(F)(F)F)cn1)C2 [Embodiment 10, 3-(trifluoromethyl)-5-(((3R)-3-(3-(5-(trifluoromethyl)pyrimidin-2-yl)-3,8-diazabicyclo[3.2.1]octane-8-carbonyl)pyrrolidin-1-yl)methyl)pyridin-2(1H)-one]
8 | 100 to 1000 | O=C([C@H]1CCN(Cc2cc(C(F)(F)F)c(=O)[nH]n2)C1)N1C2CCC1CN(c1ncc(C(F)(F)F)cn1)C2 [Embodiment 11, 4-(trifluoromethyl)-6-(((3S)-3-(3-(5-(trifluoromethyl)pyrimidin-2-yl)-3,8-diazabicyclo[3.2.1]octane-8-carbonyl)pyrrolidin-1-yl)methyl)pyridazin-3(2H)-one]
9 | 1000 to 10000 | O=C([C@H]1CCC[C@H](NCc2c[nH]c(=O)c(C(F)(F)F)c2)C1)N1CCN(c2ncc(C(F)(F)F)cn2)CC1 [Embodiment 16]
10 | 100 to 1000 | O=C([C@H]1CCCN(Cc2c[nH]c(=O)c(C(F)(F)F)c2)C1)N1CCN(c2ncc(C(F)(F)F)cn2)CC1 [Embodiment 17]
11 | 100 to 1000 | O=C(C1CCN(Cc2c[nH]c(=O)c(C(F)(F)F)c2)CC1)N1CCN(c2ncc(C(F)(F)F)cn2)CC1 [Embodiment 18]
12 | 10 to 100 | O=c1[nH]cc(CN[C@H]2C[C@@H](C(=O)N3CCN(c4ncc(C(F)(F)F)cn4)CC3)C2)cc1C(F)(F)F [Embodiment 19]
13 | 100 to 1000 | O=c1[nH]nc(CN[C@H]2C[C@@H](C(=O)N3CCN(c4ncc(C(F)(F)F)cn4)CC3)C2)cc1C(F)(F)F [Embodiment 20]
14 | 1000 to 10000 | O=C(C1CC2(C1)CN(Cc1c[nH]c(=O)c(C(F)(F)F)c1)C2)N1CCN(c2ncc(C(F)(F)F)cn2)CC1 [Embodiment 21]
15 | 10 to 100 | O=C([C@@H]1CCCN(Cc2c[nH]c(=O)c(C(F)(F)F)c2)C1)N1CCN(c2ncc(C(F)(F)F)cn2)CC1 [Embodiment 22]
16 | < 10 | C[C@H]1CN(C(=O)[C@H]2C[C@H](NCc3c[nH]c(=O)c(C(F)(F)F)c3)C2)CCN1c1ncc(C(F)(F)F)cn1 [Embodiment 23]
17 | 10 to 100 | O=C([C@@H]1CCN(Cc2c[nH]c(=O)c(C(F)(F)F)c2)C1)N1CCN(c2ncc(C(F)(F)F)cn2)CC1 [Embodiment 24]
18 | 100 to 1000 | O=C(N1CCN(c2ncc(C(F)(F)F)cn2)CC1)C12CC(NCc3c[nH]c(=O)c(C(F)(F)F)c3)(C1)C2 [Embodiment 25]
19 | 10 to 100 | C[C@H]1CN(C(=O)C2CN(Cc3c[nH]c(=O)c(C(F)(F)F)c3)C2)CCN1c1ncc(C(F)(F)F)cn1 [Embodiment 26]
20 | 10 to 100 | O=C(C1CN(Cc2c[nH]c(=O)c(C(F)(F)F)c2)C1)N1CCN(c2ccc(C(F)(F)F)cn2)CC1 [Embodiment 27]

Row | IC50 [nM] | SMILES
21 | 10 to 100 | O=c1[nH]cc(CN[C@H]2C[C@H](C(=O)N3CCN(c4ccc(C(F)(F)F)cn4)CC3)C2)cc1C(F)(F)F [Embodiment 28]
22 | 10 to 100 | O=C(C1CN(Cc2c[nH]c(=O)c(C(F)(F)F)c2)C1)N1CCN(c2cnc(C(F)(F)F)cn2)CC1 [Embodiment 29]
23 | 10 to 100 | C[C@H]1CN(C(=O)[C@@H]2CCN(Cc3cc(C(F)(F)F)c(=O)[nH]n3)C2)CCN1c1ncc(C(F)(F)F)cn1 [Embodiment 30]
24 | 10 to 100 | O=C([C@@H]1CCN(Cc2cc(C(F)(F)F)c(=O)[nH]n2)C1)N1CCN(c2ncc(C(F)(F)F)cn2)CC1 [Embodiment 31]
25 | 10 to 100 | O=C(C1CN(Cc2cc(C(F)(F)F)c(=O)[nH]n2)C1)N1CCN(c2ccc(C(F)(F)F)cn2)CC1 [Embodiment 32]
26 | 1000 to 10000 | COc1nnc(CN(C)[C@H]2C[C@H](C(=O)N3CCN(c4ncc(C(F)(F)F)cn4)CC3)C2)cc1C(F)(F)F [Embodiment 33, ((1R,3R)-3-(((6-methoxy-5-(trifluoromethyl)pyridazin-3-yl)methyl)(methyl)amino)cyclobutyl)(4-(5-(trifluoromethyl)pyrimidin-2-yl)piperazin-1-yl)methanone]
27 | 10 to 100 | CN(Cc1cc(C(F)(F)F)c(=O)[nH]n1)[C@H]1C[C@H](C(=O)N2CCN(c3ncc(C(F)(F)F)cn3)CC2)C1 [Embodiment 34]
28 | 10 to 100 | O=C(C1CN(Cc2cc(C(F)(F)F)c(=O)[nH]n2)C1)N1CCN2c3ncc(C(F)(F)F)cc3OCC[C@@H]2C1 [Embodiment 37]
29 | 10 to 100 | O=c1[nH]nc(CN[C@H]2C[C@H](C(=O)N3CCN4c5ncc(C(F)(F)F)cc5OCC[C@@H]4C3)C2)cc1C(F)(F)F [Embodiment 38]
30 | 10 to 100 | O=c1[nH]nc(CN[C@H]2C[C@H](C(=O)N3CCN4c5ncc(C(F)(F)F)cc5COC[C@H]4C3)C2)cc1C(F)(F)F [Embodiment 39]
31 | 10 to 100 | O=C(C1CN(Cc2cc(C(F)(F)F)c(=O)[nH]n2)C1)N1CCN2c3ncc(C(F)(F)F)cc3OCC[C@H]2C1 [Embodiment 40, (S)-4-(trifluoromethyl)-6-((3-(3-(trifluoromethyl)-7,7a,8,9,10,11-hexahydro-6H-pyrazino[1,2-d]pyrido[3,2-b][1,4]oxazepine-9-carbonyl)azetidin-1-yl)methyl)pyridazin-3(2H)-one]
32 | 10 to 100 | O=c1[nH]nc(CN[C@H]2C[C@H](C(=O)N3CCN4c5ncc(C(F)(F)F)cc5OCC[C@H]4C3)C2)cc1C(F)(F)F [Embodiment 41]
33 | 10 to 100 | O=C(C1CN(Cc2cc(C(F)(F)F)c(=O)[nH]n2)C1)N1CCN2c3ncc(C(F)(F)F)cc3COC[C@H]2C1 [Embodiment 42, (R)-4-(trifluoromethyl)-6-((3-(3-(trifluoromethyl)-7,7a,8,9,10,11-hexahydro-5H-pyrazino[2,1-c]pyrido[2,3-e][1,4]oxazepine-9-carbonyl)azetidin-1-yl)methyl)pyridazin-3(2H)-one]
34 | 10 to 100 | O=c1[nH]nc(CN[C@H]2C[C@H](C(=O)N3CCN4c5ncc(C(F)(F)F)cc5COC[C@@H]4C3)C2)cc1C(F)(F)F [Embodiment 43]
35 | 10 to 100 | O=C(C1CN(Cc2cc(C(F)(F)F)c(=O)[nH]n2)C1)N1CCN2c3ncc(C(F)(F)F)cc3COC[C@@H]2C1 [Embodiment 44, (S)-4-(trifluoromethyl)-6-((3-(3-(trifluoromethyl)-7,7a,8,9,10,11-hexahydro-5H-pyrazino[2,1-c]pyrido[2,3-e][1,4]oxazepine-9-carbonyl)azetidin-1-yl)methyl)pyridazin-3(2H)-one]
36 | 10 to 100 | COc1cc(C(F)(F)F)cnc1N1CCN(C(=O)[C@H]2C[C@H](NCc3cc(C(F)(F)F)c(=O)[nH]n3)C2)CC1 [Embodiment 45]
37 | 10 to 100 | N#Cc1cc(C(F)(F)F)cnc1N1CCN(C(=O)[C@H]2C[C@H](NCc3cc(C(F)(F)F)c(=O)[nH]n3)C2)CC1 [Embodiment 47, 2-(4-((1R,3R)-3-(((6-oxo-5-(trifluoromethyl)-1,6-dihydropyridazin-3-yl)methyl)amino)cyclobutane-1-carbonyl)piperazin-1-yl)-5-(trifluoromethyl)nicotinonitrile]
38 | 10 to 100 | CC(C)(c1cc(C(F)(F)F)c(=O)[nH]n1)N1CC(C(=O)N2CCN(c3ncc(C(F)(F)F)cn3)CC2)C1 [Embodiment 49, 4-(trifluoromethyl)-6-(2-(3-(4-(5-(trifluoromethyl)pyrimidin-2-yl)piperazine-1-carbonyl)azetidin-1-yl)propan-2-yl)pyridazin-3(2H)-one]
39 | 10 to 100 | O=c1cc(OC2CCC2)c(CN[C@H]2C[C@H](C(=O)N3CCN(c4ncc(C(F)(F)F)cn4)CC3)C2)n[nH]1 [Embodiment 52]

Row | SMILES | IC50 [nM]
40 | N#Cc1cc(C(F)(F)F)cnc1N1CCN(C(=O)C2CC(NCc3cc(C(F)(F)F)c(=O)[nH]n3)C2)CC1 [Embodiment 50, 2-(4-((1R,3R)-3-(((6-oxo-5-(trifluoromethyl)-1,6-dihydropyridazin-3-yl)methyl)amino)cyclobutane-1-carbonyl)piperazin-1-yl)-5-(trifluoromethyl)nicotinonitrile] | 10 to 100
41 | O=C(C1CN(Cc2n[nH]c(=O)cc2OC2CCC2)C1)N1CCN(c2ncc(C(F)(F)F)cn2)CC1 [Embodiment 51, 5-cyclobutoxy-6-((3-(4-(5-(trifluoromethyl)pyrimidin-2-yl)piperazine-1-carbonyl)azetidin-1-yl)methyl)pyridazin-3(2H)-one] | 100 to 1000
